Where a name gives a salt, the structure may show the parent alone. Active and inactive are the calls of the source.
Legend:
[1] = toxicity toward HepG2 liver cells – cell-based, plate reader, cherry-pick, antagonist series, cytotoxicity control, dose response (AID 743416); type: functional
[2] = viability loss in HEK293 cells – cell-based, plate reader, cherry-picked samples, cytotoxicity control, dose response (AID 743446); type: functional
[3] = blockers of bursicon-stimulated LGR2 cAMP reporter – cell-based, HEK293, CRE-luciferase reporter, cherry pick, set 2, dose response (AID 743343); type: functional;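 note: transfected cells were stimulated with diluted bursicon conditioned medium after compound addition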
[4] = biological target: COUP transcription factor 2 (Homo sapiens, UniProt P24468); assay: Luminescence-based cell-based high throughput dose response assay to identify inhibitors of COUP-TFII (NR2F2).; type: functional;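 note: HEK293 cells transiently cotransfected with COUP-TFII expression vector and reporter; luciferase reporter luminescence driven by COUP-TFII from the pX2-168 reporter plasmid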
Chain of COUP transcription factor 2 (P24468 whole entry): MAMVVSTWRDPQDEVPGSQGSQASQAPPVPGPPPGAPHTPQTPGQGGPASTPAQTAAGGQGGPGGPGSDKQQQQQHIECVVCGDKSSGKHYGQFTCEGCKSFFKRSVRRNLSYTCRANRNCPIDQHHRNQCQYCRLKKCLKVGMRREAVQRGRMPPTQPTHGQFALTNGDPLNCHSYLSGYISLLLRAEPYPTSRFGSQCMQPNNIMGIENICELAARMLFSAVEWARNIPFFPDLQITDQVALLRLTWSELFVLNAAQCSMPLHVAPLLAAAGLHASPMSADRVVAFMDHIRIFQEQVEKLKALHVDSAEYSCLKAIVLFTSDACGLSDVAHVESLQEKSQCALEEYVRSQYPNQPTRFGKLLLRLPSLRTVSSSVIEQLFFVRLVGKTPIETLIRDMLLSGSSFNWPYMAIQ

[5] = blockade of melanocortin 4 receptor signaling – cell-based, plate reader, cherry pick, counter-screen for LGR2 antagonist project, dose response (AID 743444); type: functional;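 note: transfected HEK 293 cells stimulated with alpha-MSH peptide; potency of inhibitors of the alpha-MSH evoked signal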
[6] = A549 cell cytotoxicity, dose response, cytotoxicity control, plate reader, cherry-pick, antagonist series (AID 743412); type: functional, cell-based
[7] = biological target: NAD-dependent protein deacylase sirtuin-5, mitochondrial (Homo sapiens, UniProt Q9NXA8); assay: sirtuin-5 deacylation blockers, concentration series – biochemical, fluorescence imaging, cherry-pick, set 5, dose response (AID 720591);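 note: desuccinylation of succinyl peptide AMC substrate read as fluorescence after trypsin release; potency of inhibitors that lower fluorescence and may act on trypsin instead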
Chain of NAD-dependent protein deacylase sirtuin-5, mitochondrial (Q9NXA8 whole entry): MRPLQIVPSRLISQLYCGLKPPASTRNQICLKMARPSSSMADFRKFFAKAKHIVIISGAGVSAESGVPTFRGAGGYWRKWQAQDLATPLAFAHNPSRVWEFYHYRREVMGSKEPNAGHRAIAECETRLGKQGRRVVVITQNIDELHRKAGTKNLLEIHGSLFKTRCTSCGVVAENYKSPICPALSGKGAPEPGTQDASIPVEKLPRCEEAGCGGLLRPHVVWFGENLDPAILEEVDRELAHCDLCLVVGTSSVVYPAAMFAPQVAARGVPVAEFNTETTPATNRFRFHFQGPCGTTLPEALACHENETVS

[8] = rise of 4N DNA cells, HeLa – IC50, dose response (AID 1117351); type: functional, cell-based
[9] = rise of 2N DNA cells, HeLa – IC50, dose response (AID 1117349); type: functional, cell-based
[10] = RKO cell viability reduction, dose response, CellTiter-Glo luminescence (AID 1117322); type: functional
[11] = cytotoxicity toward Colo320 cells – cell-based, CellTiter-Glo luminescence, IC50, dose response (AID 1117334); type: functional; conditions: COLO 320
[12] = cytotoxicity toward HT-29 cells – cell-based, CellTiter-Glo luminescence, IC50, dose response (AID 1117330); type: functional
[13] = CellTiter-Glo luminescence survival assay, SW480 colon tumor line, concentration-response curve, half-maximal inhibitory concentration (AID 1117338); type: functional
[14] = Reduced DLD-1 viability, concentration-response, CellTiter-Glo luminescence (AID 1117352); type: functional
[15] = SNU-C1 cell viability reduction, dose response, CellTiter-Glo luminescence (AID 1117323); type: functional, cell-based
[16] = cytotoxicity toward HCT116 cells – cell-based, CellTiter-Glo luminescence, IC50, dose response (AID 1117332); type: functional; conditions: HCT-116
Galanin receptor type 3 = Galanin receptor type 3 (Homo sapiens, UniProt O60755); assay: Fluorescence-based cell-based primary high throughput dose response assay to identify antagonists of the Galanin Receptor 3 (GalR3).; type: functional
Chain of Galanin receptor type 3 (O60755 whole entry): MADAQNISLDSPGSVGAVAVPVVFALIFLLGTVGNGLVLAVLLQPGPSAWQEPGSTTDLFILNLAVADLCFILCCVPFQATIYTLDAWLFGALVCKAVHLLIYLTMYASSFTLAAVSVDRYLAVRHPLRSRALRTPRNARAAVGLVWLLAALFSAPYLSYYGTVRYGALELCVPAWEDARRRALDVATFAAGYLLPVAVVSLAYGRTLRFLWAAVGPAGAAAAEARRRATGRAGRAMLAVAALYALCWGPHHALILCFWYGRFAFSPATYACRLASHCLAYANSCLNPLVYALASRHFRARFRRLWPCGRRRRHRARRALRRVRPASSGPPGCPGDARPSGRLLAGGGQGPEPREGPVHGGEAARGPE

BJ [17] = assay: BJ-TERT-LT-ST fibroblast viability loss – cell-based, RAS-independent, luminescence, dose response (AID 1935); type: functional; conditions: Homo sapiens;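 note: BJ fibroblasts immortalized with TERT plus LT and ST oncogenes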
BJ [18] = assay: cells; type: functional, cell-based; conditions: Homo sapiens
BJ [19] = assay: BJ-TERT fibroblast viability loss – cell-based, RAS-independent, luminescence, dose response (AID 1933); type: functional; conditions: Homo sapiens
[20] = DRD fibroblast viability loss – cell-based, non-viral oncogenic, luminescence, dose response (AID 1934); type: functional; conditions: Homo sapiens
cells = type: functional, cell-based; conditions: HEK-CNG

COc1ccc(-n2nnnc2C(c2cc3ccccc3o2)N2CCC(n3c(O)nc4ccccc43)CC2)cc1 (stereo not drawn)
active: AC50 [1] 4.45 µM | AC50 [2] 8.29 µM | AC50 [3] 13.7 µM | IC50 [4] 6.4 µM | AC50 [5] 14.3 µM | AC50 [6] 38.9 µM

COc1cc(Nc2ncc3c(n2)CCN(C(=O)Nc2ccc(C(C)C)cc2)C3)cc(OC)c1OC
active: AC50 [7] 17 µM

CN1CC[C@H](c2c(O)cc(O)c3c(=O)cc(-c4ccccc4Cl)oc23)[C@H](O)C1 [ALVOCIDIB HYDROCHLORIDE]
inactive: IC50 [8] > 10 µM | IC50 [9] > 10 µM

CC=CC1=C(C(=O)O)N2C(=O)[C@@H](NC(=O)[C@H](N)c3ccc(O)cc3)[C@H]2SC1
inactive: IC50 [10] > 20 µM | IC50 [11] > 20 µM | IC50 [12] > 20 µM | IC50 [13] > 20 µM | IC50 [14] > 20 µM | IC50 [15] > 20 µM | IC50 [16] > 20 µM

COc1ccccc1N1C(C)=CC(=Cc2sc3ccccc3[n+]2C)C=C1C
inactive: EC50 (cells) > 29.9 µM
active: IC50 (Galanin receptor type 3) 0.128 µM | IC50 [4] 0.617 µM | EC50 (BJ [18]) 2.54 µM | EC50 [20] 6.24 µM
inconclusive: EC50 (BJ [17]) 3.16 µM | EC50 (BJ [19]) 3.07 µM

From ChEMBL document CHEMBL1201862, “PubChem BioAssay data set” (2004)
